Experiments:
Format in all cases: in vivo
[1] = system: soybean (Glycine max L., var. Pella 86, SOY); assay: Post-emerge greenhouse test, crop damage rating; conditions: 14 days after application
In short: (§1)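 Plants at the 2-3 leaf stage, sown 8-21 days earlier, were track-sprayed post-emergence with compound in acetone plus 0.25% v/v non-ionic surfactant at 63-1000 g ai/ha (187 l/ha). Damage was rated at 14 days on a 0-100 scale (0 none, 100 all plants dead), for both crop injury and weed control.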

[2] = system: upland rice (Oryza sp., var.Tebonnet, RICE); assay: Pre-emerge greenhouse test, crop damage rating; conditions: 14 days after application, rating scale 0-100
In short: (§2)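 Seeds sown in sandy loam one day before track-sprayer application of acetone solutions at 125–1000 g ai/ha (187 l/ha), then surface-watered to incorporate and bottom-watered. Injury scored visually at 14 days on a 0–100 scale (0 no damage, 100 complete death).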

[3] = system: field corn (Zea mays L., var. Dekalb 535, CORN); assay: Pre-emerge greenhouse test, crop damage rating; conditions: 14 days after application, rating scale 0-100
In short: as §2

[4] = system: redroot pigweed (Amaranthus retroflexus, AMARE); assay: Pre-emerge greenhouse herbicide test, phytotoxicity rating; conditions: 14 days after application, rating scale 0-100
In short: as §2

[5] = system: green foxtail (Setaria viridis, SETVI); assay: as above; conditions: 14 days after application, rating scale 0-100
In short: as §2

[6] = system: barnyardgrass (Echinochloa crusgalli, ECHCG); assay: as above; conditions: 14 days after application, rating scale 0-100
In short: as §2

[7] = system: Johnsongrass (Sorghum halepense, SORHA); assay: as above; conditions: 14 days after application, rating scale 0-100
In short: as §2

[8] = system: sicklepod (Cassia obtusifolia, CASOB); assay: as above; conditions: 14 days after application, rating scale 0-100
In short: as §2

[9] = system: common ragweed (Ambrosia artemisiifolia L., AMBEL); assay: as above; conditions: 14 days after application, rating scale 0-100
In short: as §2

[10] = system: lambsquarters (Chenopodium album, CHEAL); assay: as above; conditions: 14 days after application, rating scale 0-100
In short: as §2

[11] = system: velvetleaf (Abutilon theophrasti, ABUTH); assay: as above; conditions: 14 days after application, rating scale 0-100
In short: as §2

[12] = system: large crabgrass (Digitaria sanguinalis, DIGSA); assay: as above; conditions: 14 days after application, rating scale 0-100
In short: as §2

[13] = system: ivyleaf morningglory (Ipomoea hederacea, IPOHE); assay: as above; conditions: 14 days after application, rating scale 0-100
In short: as §2

[14] = system: common ragweed (Ambrosia artemisiifolia L., AMBEL); assay: Post-emerge greenhouse herbicide test, phytotoxicity rating; conditions: 14 days after application
In short: as §1

[15] = system: soybean (Glycine max L., var. Pella 86, SOY); assay: Pre-emerge greenhouse test, crop damage rating; conditions: 14 days after application, rating scale 0-100
In short: as §2

[16] = system: upland rice (Oryza sp., var.Tebonnet, RICE); assay: Post-emerge greenhouse test, crop damage rating; conditions: 14 days after application
In short: as §1

[17] = system: field corn (Zea mays L., var. Dekalb 535, CORN); assay: Post-emerge greenhouse test, crop damage rating; conditions: 14 days after application
In short: as §1

[18] = system: redroot pigweed (Amaranthus retroflexus, AMARE); assay: Post-emerge greenhouse herbicide test, phytotoxicity rating; conditions: 14 days after application
In short: as §1

[19] = system: green foxtail (Setaria viridis, SETVI); assay: as above; conditions: 14 days after application
In short: as §1

[20] = system: barnyardgrass (Echinochloa crusgalli, ECHCG); assay: as above; conditions: 14 days after application
In short: as §1

[21] = system: Johnsongrass (Sorghum halepense, SORHA); assay: as above; conditions: 14 days after application
In short: as §1

[22] = system: lambsquarters (Chenopodium album, CHEAL); assay: as above; conditions: 14 days after application
In short: as §1

[23] = system: velvetleaf (Abutilon theophrasti, ABUTH); assay: as above; conditions: 14 days after application
In short: as §1

[24] = system: large crabgrass (Digitaria sanguinalis, DIGSA); assay: as above; conditions: 14 days after application
In short: as §1

[25] = system: ivyleaf morningglory (Ipomoea hederacea, IPOHE); assay: as above; conditions: 14 days after application
In short: as §1

O=c1n(CCCF)nnn1-c1cc(Oc2ncccn2)c(Cl)cc1Cl [Compound 6-14]
SOY crop damage rating (0-100) ([1]; 63 g al/ha): 50 | SOY crop damage rating (0-100) ([1]; 500 g al/ha): 90 | crop damage rating RICE ([2]; 125 g ai/ha): 30 | crop damage rating RICE ([2]; 500 g ai/ha): 80 | crop damage rating CORN ([3]; 125 g ai/ha): 20 | crop damage rating CORN ([3]; 500 g ai/ha): 40 | phytotoxicity rating AMARE ([4]; 125 g ai/ha): 100 | phytotoxicity rating AMARE ([4]; 500 g ai/ha): 100 | phytotoxicity rating SETVI ([5]; 125 g ai/ha): 100 | phytotoxicity rating SETVI ([5]; 500 g ai/ha): 100 | phytotoxicity rating ECHCG ([6]; 125 g ai/ha): 60 | phytotoxicity rating ECHCG ([6]; 500 g ai/ha): 99 | phytotoxicity rating SORHA ([7]; 125 g ai/ha): 80 | phytotoxicity rating SORHA ([7]; 500 g ai/ha): 100 | phytotoxicity rating CASOB ([8]; 125 g ai/ha): 60 | phytotoxicity rating CASOB ([8]; 500 g ai/ha): 90 | phytotoxicity rating AMBEL ([9]; 125 g ai/ha): 20 | phytotoxicity rating AMBEL ([9]; 500 g ai/ha): 95 | phytotoxicity rating CHEAL ([10]; 125 g ai/ha): 100 | phytotoxicity rating CHEAL ([10]; 500 g ai/ha): 100 | phytotoxicity rating ABUTH ([11]; 125 g ai/ha): 100 | phytotoxicity rating ABUTH ([11]; 500 g ai/ha): 100 | phytotoxicity rating DIGSA ([12]; 125 g ai/ha): 90 | phytotoxicity rating DIGSA ([12]; 500 g ai/ha): 100 | phytotoxicity rating IPOHE ([13]; 125 g ai/ha): 60 | phytotoxicity rating IPOHE ([13]; 500 g ai/ha): 95 | AMBEL phytotoxicity rating (0-100) ([14]; 63 g al/ha): 0 | AMBEL phytotoxicity rating (0-100) ([14]; 500 g al/ha): 50 | crop damage rating SOY ([15]; 125 g ai/ha): 10 | crop damage rating SOY ([15]; 500 g ai/ha): 80 | RICE crop damage rating (0-100) ([16]; 63 g al/ha): 20 | RICE crop damage rating (0-100) ([16]; 500 g al/ha): 50 | CORN crop damage rating (0-100) ([17]; 63 g al/ha): 0 | CORN crop damage rating (0-100) ([17]; 500 g al/ha): 20 | AMARE phytotoxicity rating (0-100) ([18]; 63 g al/ha): 20 | AMARE phytotoxicity rating (0-100) ([18]; 500 g al/ha): 100 | SETVI phytotoxicity rating (0-100) ([19]; 63 g al/ha): 0 | SETVI phytotoxicity rating (0-100) ([19]; 500 g al/ha): 70 | ECHCG phytotoxicity rating (0-100) ([20]; 63 g al/ha): 0 | ECHCG phytotoxicity rating (0-100) ([20]; 500 g al/ha): 60 | SORHA phytotoxicity rating (0-100) ([21]; 63 g al/ha): 30 | SORHA phytotoxicity rating (0-100) ([21]; 500 g al/ha): 90 | CHEAL phytotoxicity rating (0-100) ([22]; 63 g al/ha): 70 | CHEAL phytotoxicity rating (0-100) ([22]; 500 g al/ha): 95 | ABUTH phytotoxicity rating (0-100) ([23]; 63 g al/ha): 70 | ABUTH phytotoxicity rating (0-100) ([23]; 500 g al/ha): 100 | DIGSA phytotoxicity rating (0-100) ([24]; 63 g al/ha): 0 | DIGSA phytotoxicity rating (0-100) ([24]; 500 g al/ha): 30 | IPOHE phytotoxicity rating (0-100) ([25]; 63 g al/ha): 50 | IPOHE phytotoxicity rating (0-100) ([25]; 500 g al/ha): 100

From US6479435B1, “Diaryl ethers and processes for their preparation and herbicidal and desiccant compositions containing them” (ISK Americas Incorporated, priority 1997, dated 2002)
